Literature values in patent publication US9957484B2, “Methods for promoting cell reprogramming” (Sanford-Burnham Medical Research Institute, priority 2011, dated 2018).

What was measured:
Details in all cases: kind of value not given; cited from earlier work
[1] = molecular target: PDK1 (Homo sapiens, UniProt O15530)
[2] = molecular target: Chk2 (Homo sapiens, UniProt O96017)
[3] = molecular target: PKCβ (Homo sapiens, UniProt P05771)
[4] = molecular target: Lck (Homo sapiens, UniProt P06239)
[5] = molecular target: PKCα (Homo sapiens, UniProt P17252)
[6] = molecular target: PKCγ (Homo sapiens, UniProt P05129)
[7] = molecular target: Cdk5/p25 (Homo sapiens, UniProt Q00535)
[8] = molecular target: PAK4 (Homo sapiens, UniProt O96013)
[9] = molecular target: Cdk1 (Homo sapiens, UniProt P06493)
[10] = molecular target: Chk1 (Homo sapiens, UniProt O14757)
[11] = molecular target: MAPKAP kinase-2 (Homo sapiens, UniProt P49137)
[12] = molecular target: PKCδ (Homo sapiens, UniProt Q05655)
[13] = molecular target: Cdc25C-associated protein kinase 1 (Homo sapiens, UniProt P27448)
[14] = test system: myosin II heavy chain
[15] = molecular target: MEK1 (Homo sapiens, UniProt Q02750)
Chain of MEK1 (Q02750 whole entry, species assumed): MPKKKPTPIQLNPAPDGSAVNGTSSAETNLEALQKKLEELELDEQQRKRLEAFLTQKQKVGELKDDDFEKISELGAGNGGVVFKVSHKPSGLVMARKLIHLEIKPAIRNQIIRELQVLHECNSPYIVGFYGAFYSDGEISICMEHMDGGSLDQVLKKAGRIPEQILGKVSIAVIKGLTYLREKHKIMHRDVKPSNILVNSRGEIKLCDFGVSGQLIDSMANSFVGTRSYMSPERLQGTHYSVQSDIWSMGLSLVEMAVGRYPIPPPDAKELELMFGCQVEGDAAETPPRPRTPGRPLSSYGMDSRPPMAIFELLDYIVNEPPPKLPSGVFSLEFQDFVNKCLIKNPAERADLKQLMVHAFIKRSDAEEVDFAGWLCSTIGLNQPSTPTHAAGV

Chain of Cdc25C-associated protein kinase 1 (P27448 whole entry): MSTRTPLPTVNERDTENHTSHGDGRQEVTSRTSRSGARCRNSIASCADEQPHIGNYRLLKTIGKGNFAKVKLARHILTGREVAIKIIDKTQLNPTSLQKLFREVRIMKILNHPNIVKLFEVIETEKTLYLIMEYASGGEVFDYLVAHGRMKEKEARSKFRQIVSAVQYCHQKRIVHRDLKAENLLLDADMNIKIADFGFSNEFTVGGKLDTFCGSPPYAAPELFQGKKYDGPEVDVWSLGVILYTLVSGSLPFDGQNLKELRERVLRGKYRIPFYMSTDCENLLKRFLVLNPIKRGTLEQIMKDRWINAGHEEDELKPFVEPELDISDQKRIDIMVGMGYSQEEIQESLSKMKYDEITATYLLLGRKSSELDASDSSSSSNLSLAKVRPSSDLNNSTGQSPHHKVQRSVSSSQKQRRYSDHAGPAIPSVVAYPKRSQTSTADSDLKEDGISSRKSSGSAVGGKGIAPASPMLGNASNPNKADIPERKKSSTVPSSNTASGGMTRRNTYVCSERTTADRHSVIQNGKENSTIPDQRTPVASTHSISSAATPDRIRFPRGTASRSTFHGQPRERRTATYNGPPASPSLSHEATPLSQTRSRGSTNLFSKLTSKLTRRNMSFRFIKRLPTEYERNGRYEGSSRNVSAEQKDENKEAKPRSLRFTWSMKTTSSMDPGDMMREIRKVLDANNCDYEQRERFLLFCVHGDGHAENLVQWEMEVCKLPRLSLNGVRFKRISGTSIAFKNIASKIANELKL
Chain of Cdk5/p25 (Q00535 whole entry, species assumed): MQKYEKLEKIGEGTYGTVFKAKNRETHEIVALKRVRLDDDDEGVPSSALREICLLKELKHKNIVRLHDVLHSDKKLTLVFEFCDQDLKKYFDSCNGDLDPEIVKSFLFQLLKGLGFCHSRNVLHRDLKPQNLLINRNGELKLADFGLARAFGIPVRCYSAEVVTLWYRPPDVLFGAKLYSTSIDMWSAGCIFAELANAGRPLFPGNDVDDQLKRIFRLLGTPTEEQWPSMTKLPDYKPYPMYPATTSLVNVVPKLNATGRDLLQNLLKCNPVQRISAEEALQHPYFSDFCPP
Chain of Cdk5/p25 (Q15078 99-307 partner limits assumed, species assumed): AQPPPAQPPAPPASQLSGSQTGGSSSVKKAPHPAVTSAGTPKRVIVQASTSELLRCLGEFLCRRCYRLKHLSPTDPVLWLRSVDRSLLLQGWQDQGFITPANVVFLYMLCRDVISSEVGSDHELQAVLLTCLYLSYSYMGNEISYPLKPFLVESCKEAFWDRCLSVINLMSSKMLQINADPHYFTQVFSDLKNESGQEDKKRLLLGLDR
Chain of MAPKAP kinase-2 (P49137 whole entry, species assumed): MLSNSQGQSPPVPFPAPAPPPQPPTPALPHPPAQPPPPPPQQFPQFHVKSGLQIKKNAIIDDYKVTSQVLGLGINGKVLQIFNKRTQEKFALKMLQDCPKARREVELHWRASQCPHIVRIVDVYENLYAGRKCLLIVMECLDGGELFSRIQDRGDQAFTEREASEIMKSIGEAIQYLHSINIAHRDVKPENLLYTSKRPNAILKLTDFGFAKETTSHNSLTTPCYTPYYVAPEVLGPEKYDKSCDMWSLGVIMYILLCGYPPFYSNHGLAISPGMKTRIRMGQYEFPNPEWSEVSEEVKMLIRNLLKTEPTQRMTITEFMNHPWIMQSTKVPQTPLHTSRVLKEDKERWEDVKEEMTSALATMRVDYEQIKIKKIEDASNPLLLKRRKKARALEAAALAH
Chain of Lck (P06239 whole entry): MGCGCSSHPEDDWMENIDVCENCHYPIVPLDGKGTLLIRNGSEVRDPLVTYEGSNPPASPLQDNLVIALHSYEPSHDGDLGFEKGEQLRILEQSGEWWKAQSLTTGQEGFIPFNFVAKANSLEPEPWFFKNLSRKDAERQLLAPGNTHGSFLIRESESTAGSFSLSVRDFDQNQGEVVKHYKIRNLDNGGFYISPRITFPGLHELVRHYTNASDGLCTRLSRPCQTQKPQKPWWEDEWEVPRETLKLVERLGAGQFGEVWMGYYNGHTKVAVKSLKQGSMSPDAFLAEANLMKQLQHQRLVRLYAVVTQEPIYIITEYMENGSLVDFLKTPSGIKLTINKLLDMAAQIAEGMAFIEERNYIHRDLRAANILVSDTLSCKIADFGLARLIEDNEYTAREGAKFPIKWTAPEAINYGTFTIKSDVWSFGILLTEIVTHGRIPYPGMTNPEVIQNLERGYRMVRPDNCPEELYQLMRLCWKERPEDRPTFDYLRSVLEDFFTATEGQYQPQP
Chain of Chk2 (O96017 whole entry, species assumed): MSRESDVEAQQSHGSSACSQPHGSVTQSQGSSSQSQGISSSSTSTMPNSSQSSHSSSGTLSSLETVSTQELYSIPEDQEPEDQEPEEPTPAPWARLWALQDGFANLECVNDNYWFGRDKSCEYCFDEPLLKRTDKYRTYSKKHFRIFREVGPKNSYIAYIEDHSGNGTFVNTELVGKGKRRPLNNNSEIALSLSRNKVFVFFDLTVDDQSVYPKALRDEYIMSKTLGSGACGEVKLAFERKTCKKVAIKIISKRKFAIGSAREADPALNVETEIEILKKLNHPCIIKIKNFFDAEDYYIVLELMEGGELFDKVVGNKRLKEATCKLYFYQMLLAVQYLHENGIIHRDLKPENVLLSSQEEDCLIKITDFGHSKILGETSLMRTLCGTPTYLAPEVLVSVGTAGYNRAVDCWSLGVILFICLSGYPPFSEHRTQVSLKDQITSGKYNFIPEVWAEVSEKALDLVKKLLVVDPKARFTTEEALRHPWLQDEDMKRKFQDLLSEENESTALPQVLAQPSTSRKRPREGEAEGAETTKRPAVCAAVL
Chain of Chk1 (O14757 whole entry, species assumed): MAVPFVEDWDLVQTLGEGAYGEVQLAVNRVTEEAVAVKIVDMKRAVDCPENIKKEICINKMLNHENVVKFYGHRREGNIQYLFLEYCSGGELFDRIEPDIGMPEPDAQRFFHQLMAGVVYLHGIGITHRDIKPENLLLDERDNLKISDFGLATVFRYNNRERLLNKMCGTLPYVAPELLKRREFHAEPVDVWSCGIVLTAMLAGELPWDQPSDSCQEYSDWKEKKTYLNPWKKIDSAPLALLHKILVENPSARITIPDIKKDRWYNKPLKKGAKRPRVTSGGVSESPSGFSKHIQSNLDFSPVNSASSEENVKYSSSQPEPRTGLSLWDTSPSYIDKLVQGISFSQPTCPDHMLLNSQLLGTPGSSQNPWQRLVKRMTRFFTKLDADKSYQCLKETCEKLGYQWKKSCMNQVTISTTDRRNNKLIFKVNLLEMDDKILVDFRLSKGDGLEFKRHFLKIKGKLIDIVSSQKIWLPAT

Compound | Potential Targets: PDK1 [1] [nM] | Potential Targets: Chk2 [2] | Potential Targets: PKCβ [3] [nM] | Potential Targets: Lck [4] [nM] | Potential Targets: PKCα [5] [nM] | Potential Targets: PKCγ [6] [nM] | Potential Targets: Cdk5/p25 [7] [nM] | Potential Targets: PAK4 [8] [nM] | Potential Targets: Cdk1 [9] [nM] | Potential Targets: Chk1 [10] [nM] | Potential Targets: MAPKAP kinase-2 [11] [nM] | Potential Targets: PKCδ [12] [nM] | Potential Targets: Cdc25C-associated protein kinase 1 [13] [nM] | Potential Targets: myosin II heavy chain [14] | Potential Targets: MEK1 [15]
CN[C@@H]1C[C@H]2O[C@@](C)([C@@H]1OC)n1c3ccccc3c3c4c(c5c6ccccc6n2c5c31)C(=O)N[C@@H]4O [BIM-0207189, UCN-01] | 33 | 1.04 μM for Chk1, Cdc25C- | 34 | 50 | 9 | 30 | 150 | 50 | 50 | 7 | 95 | 590 | 27 | – | –
c1nc2nc(Nc3ccc(N4CCOCC4)cc3)nc(NC3CCCCC3)c2[nH]1 [BIM-0207192, Reversine] | – | – | – | – | – | – | – | – | – | – | – | – | – | chain (10 nM), Aurora kinases | MEK1 (8 nM), myosin II heavy
